# Values of other authors in patent publication US6534285B1 (priority 1984, dated 2003).
# Molecular target: AIDS reverse transcriptase (Human immunodeficiency virus type 1 group M subtype B, UniProt P04585)
# Conditions: reference 53
smiles,measurement,value
Cc1ccc(C(=O)Nc2ccc(S(=O)(=O)O)c3cc(S(=O)(=O)O)cc(S(=O)(=O)O)c23)cc1NC(=O)c1cccc(NC(=O)Nc2cccc(C(=O)Nc3cc(C(=O)Nc4ccc(S(=O)(=O)O)c5cc(S(=O)(=O)O)cc(S(=O)(=O)O)c45)ccc3C)c2)c1 [Suramin],inhibition of AIDS reverse transcriptase,known inhibitor
